Key:
EMT-6 tumor tissue = test: Imaging study using ^125 I-IAZA; assay type: in vivo
[1] = tested on: BALB/C mice bearing subcutaneous EMT-6 tumors; test: Tissue distribution of radioactivity after intravenous injection; assay type: in vivo; settings: for Tissue to Blood Ratio, Bone / Tissue to Blood Ratio, Carcass / Tissue to Blood Ratio, Heart / Tissue to Blood Ratio, Intestine / Tissue to Blood Ratio, Kidney / Tissue to Blood Ratio, Liver / Tissue to Blood Ratio, Lung / Tissue to Blood Ratio, Muscle / Tissue to Blood Ratio, Spleen / Tissue to Blood Ratio, Stomach / Tissue to Blood Ratio, Tumor: i.v.
Outline: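 BALB/c mice carried subcutaneous EMT-6 tumours (10^5 cells), reaching about 8–10 mm at 12–14 days. Each received a bolus tail-vein injection of ^125I-labelled drug (40–60 kBq). At set times, tissues were weighed wet and gamma-counted, giving % injected dose per gram; blood was assumed to be 6.5% of body weight.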

`O=[N+]([O-])c1nccn1[C@@H]1O[C@H](CI)[C@@H](O)[C@@H]1O` [IAZA, 1-(5-iodo-5-deoxy-β-D-arabino-furanosyl)-2-nitroimidazole] was tested, and the “delineation of tumor tissue in imaging” value (EMT-6 tumor tissue) was “clearly delineated from surrounding tissue”, the “Tissue to Blood Ratio, Bone” value ([1]; 0.25 h) was 0.50 and the “Tissue to Blood Ratio, Carcass” value ([1]; 0.25 h) was 1.02. The “Tissue to Blood Ratio, Heart” value ([1]; 0.25 h) was 1.78, the “Tissue to Blood Ratio, Intestine” value ([1]; 0.25 h) was 2.06 and the “Tissue to Blood Ratio, Kidney” value ([1]; 0.25 h) was 2.49. The “Tissue to Blood Ratio, Liver” value ([1]; 0.25 h) was 3.29, the “Tissue to Blood Ratio, Lung” value ([1]; 0.25 h) was 1.75 and the “Tissue to Blood Ratio, Muscle” value ([1]; 0.25 h) was 1.17. The “Tissue to Blood Ratio, Spleen” value ([1]; 0.25 h) was 1.36, the “Tissue to Blood Ratio, Stomach” value ([1]; 0.25 h) was 1.66 and the “Tissue to Blood Ratio, Tumor” value ([1]; 0.25 h) was 0.97. For the same compound, the “Tissue to Blood Ratio, Bone” value ([1]; 0.50 h) was 0.63, the “Tissue to Blood Ratio, Carcass” value ([1]; 0.50 h) was 1.18 and the “Tissue to Blood Ratio, Heart” value ([1]; 0.50 h) was 1.64. For the same compound, the “Tissue to Blood Ratio, Intestine” value ([1]; 0.50 h) was 2.04, the “Tissue to Blood Ratio, Kidney” value ([1]; 0.50 h) was 2.61 and the “Tissue to Blood Ratio, Liver” value ([1]; 0.50 h) was 3.29. For the same compound, the “Tissue to Blood Ratio, Lung” value ([1]; 0.50 h) was 1.74, the “Tissue to Blood Ratio, Muscle” value ([1]; 0.50 h) was 1.28 and the “Tissue to Blood Ratio, Spleen” value ([1]; 0.50 h) was 1.38. For the same compound, the “Tissue to Blood Ratio, Stomach” value ([1]; 0.50 h) was 2.19, the “Tissue to Blood Ratio, Tumor” value ([1]; 0.50 h) was 1.60 and the “Tissue to Blood Ratio, Bone” value ([1]; 1 h) was 0.63. The “Tissue to Blood Ratio, Carcass” value ([1]; 1 h) was 1.21, the “Tissue to Blood Ratio, Heart” value ([1]; 1 h) was 1.51 and the “Tissue to Blood Ratio, Intestine” value ([1]; 1 h) was 2.52. The “Tissue to Blood Ratio, Kidney” value ([1]; 1 h) was 2.38, the “Tissue to Blood Ratio, Liver” value ([1]; 1 h) was 3.06 and the “Tissue to Blood Ratio, Lung” value ([1]; 1 h) was 1.63. The “Tissue to Blood Ratio, Muscle” value ([1]; 1 h) was 1.19, the “Tissue to Blood Ratio, Spleen” value ([1]; 1 h) was 1.35 and the “Tissue to Blood Ratio, Stomach” value ([1]; 1 h) was 2.15. For the same compound, the “Tissue to Blood Ratio, Tumor” value ([1]; 1 h) was 1.46, the “Tissue to Blood Ratio, Bone” value ([1]; 2 h) was 0.64 and the “Tissue to Blood Ratio, Carcass” value ([1]; 2 h) was 1.60. For the same compound, the “Tissue to Blood Ratio, Heart” value ([1]; 2 h) was 1.13, the “Tissue to Blood Ratio, Intestine” value ([1]; 2 h) was 1.90 and the “Tissue to Blood Ratio, Kidney” value ([1]; 2 h) was 1.98. For the same compound, the “Tissue to Blood Ratio, Liver” value ([1]; 2 h) was 2.39, the “Tissue to Blood Ratio, Lung” value ([1]; 2 h) was 1.26 and the “Tissue to Blood Ratio, Muscle” value ([1]; 2 h) was 0.75. For the same compound, the “Tissue to Blood Ratio, Spleen” value ([1]; 2 h) was 1.02, the “Tissue to Blood Ratio, Stomach” value ([1]; 2 h) was 3.62 and the “Tissue to Blood Ratio, Tumor” value ([1]; 2 h) was 2.80. For the same compound, the “Tissue to Blood Ratio, Bone” value ([1]; 4 h) was 0.60, the “Tissue to Blood Ratio, Carcass” value ([1]; 4 h) was 1.98 and the “Tissue to Blood Ratio, Heart” value ([1]; 4 h) was 0.71. The “Tissue to Blood Ratio, Intestine” value ([1]; 4 h) was 1.80, the “Tissue to Blood Ratio, Kidney” value ([1]; 4 h) was 1.46 and the “Tissue to Blood Ratio, Liver” value ([1]; 4 h) was 2.11. For the same compound, the “Tissue to Blood Ratio, Lung” value ([1]; 4 h) was 1.00, the “Tissue to Blood Ratio, Muscle” value ([1]; 4 h) was 0.53 and the “Tissue to Blood Ratio, Spleen” value ([1]; 4 h) was 0.78. The “Tissue to Blood Ratio, Stomach” value ([1]; 4 h) was 4.02, the “Tissue to Blood Ratio, Tumor” value ([1]; 4 h) was 4.62 and the “Tissue to Blood Ratio, Bone” value ([1]; 8 h) was 0.57. The “Tissue to Blood Ratio, Carcass” value ([1]; 8 h) was 2.00, the “Tissue to Blood Ratio, Heart” value ([1]; 8 h) was 1.57 and the “Tissue to Blood Ratio, Intestine” value ([1]; 8 h) was 5.50. The “Tissue to Blood Ratio, Kidney” value ([1]; 8 h) was 2.43, the “Tissue to Blood Ratio, Liver” value ([1]; 8 h) was 3.36 and the “Tissue to Blood Ratio, Lung” value ([1]; 8 h) was 2.36. The “Tissue to Blood Ratio, Muscle” value ([1]; 8 h) was 2.57, the “Tissue to Blood Ratio, Spleen” value ([1]; 8 h) was 1.29 and the “Tissue to Blood Ratio, Stomach” value ([1]; 8 h) was 6.21. The “Tissue to Blood Ratio, Tumor” value ([1]; 8 h) was 8.71, the thyroid levels ([1]; 8 hours) was 7.9 % of the total body activity and the “Tissue to Blood Ratio, Bone” value ([1]; 24 h) was 0.59. The “Tissue to Blood Ratio, Carcass” value ([1]; 24 h) was 1.03, the “Tissue to Blood Ratio, Heart” value ([1]; 24 h) was 1.14 and the “Tissue to Blood Ratio, Intestine” value ([1]; 24 h) was 1.11. For the same compound, the “Tissue to Blood Ratio, Kidney” value ([1]; 24 h) was 1.41, the “Tissue to Blood Ratio, Liver” value ([1]; 24 h) was 2.64 and the “Tissue to Blood Ratio, Lung” value ([1]; 24 h) was 1.00. The “Tissue to Blood Ratio, Muscle” value ([1]; 24 h) was 0.54, the “Tissue to Blood Ratio, Spleen” value ([1]; 24 h) was 0.97 and the “Tissue to Blood Ratio, Stomach” value ([1]; 24 h) was 1.81. For the same compound, the “Tissue to Blood Ratio, Tumor” value ([1]; 24 h) was 5.56, the thyroid levels ([1]; 24 hours) was 33.8 % of the total body activity and the “injected dose in tumor at maximum tumor to blood ratio” value ([1]; at 8 h) was 1.22 % of the injected dose. For the same compound, the “maximum tumor to blood ratio” value ([1]; at 8 h) was 8.7, the “tumor to blood ratio (text, FIG. 7)” value ([1]; at 24 h) was > 5.5 and the “uptake in EMT-6 tumor tissue” value ([1]; in words) was “taken up preferentially in EMT-6 tumor tissue”. The “deiodination (increase in thyroid radioactivity)” value ([1]; longer periods (>4 h)) was “evidence of deiodination at longer periods (>4 h)”.
